Measurements taken from patent publication US9365499B2, “9-aminomethyl substituted tetracycline compounds” (KBP Biosciences Co., Ltd., priority 2011, dated 2016).
Values after ≈ are worked out from the molar mass of the structure shown. Read-outs that look alike come from different tables or passages of the source.

What was measured:
Acinetobacter baumannii = assay: antibacterial activity in vitro, agar dilution method; type: cell-based; details: for MIC90: Table 5, MIC90 = 90% inhibitory concentration
Excerpt: (§1) The antibacterial spectrum and in vitro antibacterial activity of the compound of the present invention
(§2) Experimental method: the agar dilution method, with reference to Clinical And Laboratory Standards Institute. Methods for Dilution Antimicrobial Susceptibility Tests for Bacteria That Grow Aerobically; Approved Standard-Seventh Edition. CLSI Document M7-A7. Vol 26, no. 2, Wayne, Pa.: Clinical and Laboratory Standards Institute, 2006.
(§3) Wherein MIC represents the minimum inhibitory concentration, MIC90 represents the 90% inhibitory concentration.

[1] = tested on: Acinetobacter calcoaceticus; assay: as above; type: cell-based; details: Table 4
Excerpt: as §1, §2, §3

Enterococcus faecalis = assay: as above; type: cell-based; details: Table 4
Excerpt: as §1, §2, §3

Escherichia coli = assay: as above; type: cell-based
Excerpt: as §1, §2, §3

Hemophilus influenzae = assay: as above; type: cell-based; details: Haemophilus influenzae; Table 5; MIC90 = 90% inhibitory concentration
Excerpt: as §1, §2, §3

Klebsiella pneumoniae = assay: as above; type: cell-based
Excerpt: as §1, §2, §3

[2] = tested on: Methicillin-resistant Staphylococcus aureus (MRSA); assay: as above; type: cell-based; details: for MIC90: Table 5, MIC90 = 90% inhibitory concentration
Excerpt: as §1, §2, §3

Staphylococcus aureus [3] = assay: as above; type: cell-based; details: for MIC90: Staphylococcus aureus, Table 5, MIC90 = 90% inhibitory concentration; for MIC: Table 10, Staphylococcus aureus of the thigh model
Excerpt: as §1, §2, §3

[4] = tested on: Streptococcus constellatus; assay: as above; type: cell-based; details: Table 5, MIC90 = 90% inhibitory concentration
Excerpt: as §1, §2, §3

Streptococus agalactiae = assay: as above; type: cell-based; details: Table 4
Excerpt: as §1, §2, §3

in vivo = assay: in vivo; parameters: species or system male SD rats; details: male, SD, rat
Procedure: Test animals: male SD rats, weighing 180-280 g, purchased from Beijing Vital River Laboratory Animal Technology Co., Ltd.; animal Certificate of Conformity: SCXK (Beijing) 2006-0009. Six rats were tested for each compound. the compounds of the present invention, prepared in accordance with the methods of above Examples, dissolved in physiological saline. tigecycline, dissolved in physiological saline. Administration of the compounds of the present invention: intravenous bolus injection (iv), dose: 5 mg/kg, administrating volume: 5 mL/kg; gavage (po), dose: 5 mg/kg, administrating volume: 5 mL/kg. Administration of tigecycline: gavage (po), dose: 10 mg/kg, administrating volume: 5 mL/kg. Prior to administration help but water fasting for 16 hours, 4 hours after administration to food. Compound 9: iv blood sampling time point: denoted by 0 min before administration, 5 min, 15 min, 30 min, 1 […] after administration; po blood sampling time point: denoted by 0 min before administration, 5 min, 15 min, 30 min, 1 […] after administration; Compound 20: iv blood sampling time point: 5 min, 15 min, 30 min, 1 […] after administration; po blood sampling time point: 10 min, 30 min, 1 […] after administration; Compound 23: iv blood sampling time point: denoted by 0 min before administration, 5 min, 15 min, 30 min, 1 […] after administration; po blood sampling time point: denoted by 0 min before administration, 5 min, 15 min, 30 min, 1 […] after administration; Tigecycline: iv blood sampling time point: 5 min, 15 min, 30 min, 1 h, 2 h, 4 h, 6 h, 8 h after administration; po blood sampling time point: 10 min, 30 min, 1 […] after administration. Each time point is taken around 100 μl whole blood and placed in a heparinized tube, centrifugated at 8000 rpm/min at 4° C. for 6 minutes in a low-temperature high-speed centrifuge to separate plasma, the resulting plasma was frozen at -80° C. refrigerator. Plasma samples analysis: 20 μl of plasma was taken and added 200 μl of internal standard solution, subjected to vortex for 3 minutes, then to centrifugation at 12,000 rpm/min for 5 minutes. 100 μl of supernatant was taken and analyzed using LC-MS/MS. Formula Absolute Bioavailability F%=[AUC](po)×Dose(iv)/[AUC](iv)×Dose(po)

Staphylococcus aureus [5] = assay: bactericidal effects in vivo in neutropenic mouse thigh model with Staphylococcus aureus infection; parameters: species or system mice; details: for change values (24 h vs blank group mean 0 h) / log10 CFU for each thigh, mean ± standard deviations (24 h): 2 dose times, subcutaneous
Procedure: Bactericidal Effects of the Present Compounds In Vivo in Mouse Thigh Model with Staphylococcus aureus Infection SPF grade CD-1 (ICR) female mice housed in SPF environment, weighing 25±2 g, purchased from Beijing Vital River Laboratory Animal Technology Co., Ltd., licensed […] No: SCXK (Beijing) 2006-0009. Staphylococcus aureus: purchased from Shanghai Renji Hospital. Four days before bacterial infection, intraperitoneal (ip) injection of cyclophosphamide 150 mg/kg; 1 day before bacterial infection, intraperitoneal (ip) injection of cyclophosphamide 100 mg/kg; Picked fresh Staphylococcus aureus single colonies which were plate cultured for 18 h, and inoculated into broth and cultured at 35° C. for 18 h. The bacterial suspension was diluted with broth, and 0.5 McFarland turbidity standard indicator bacteria suspension was prepared with a McFarland turbiditor, 10-fold diluted with broth and injected into the thigh muscle of mice in an amount of 0.1 mL for each thigh. The concentration of the bacteria suspension was about 10^6-10^7 CFU/ml. The inoculum concentration was determined by an agar-plate count method. Blank Group: the animals were sacrificed by dislocation at 2 h (recorded as 0 h) after the inoculation of bacteria. Solvent group: The first administration time was set at 2 h (denoted as 0 h) after the animals were infected with bacteria, the solvent was subcutaneously administrated, the animals were sacrificed by dislocation at 24 h after the administration. Treatment group: The first administration time was set at 2 h (denoted as 0 h). […] The thigh muscle tissue was separated from the sacrificed animals, and 5 mL of sodium chloride injection was added, homogenated. The homogenate obtained were diluted series, taken 0.05 mL and inoculated to agar plates, two plates were inoculated in parallel for each gradient bacterial suspension, and incubated at 35° C. for 18 h. Observe the growth of the colonies on each plate, and select the plates with the number of colonies between 30-300 for colony count. The number of colonies was recorded as n1, n2. N represents the diluted fold. The number of colonies (units CFU) for each thigh was calculated according to the formula of “(n1+n2)/2/0.05×5×N”. A logarithm to the base 10 for the number of colonies of each thigh was calculated to obtain log10 CFU value for each thigh.

[6] = tested on: Methicillin-resistant Staphycoccus epidermidis (MRSE); assay: antibacterial activity in vitro, agar dilution method; type: cell-based; details: Staphylococcus epidermidis, Table 2
Excerpt: as §1, §2, §3

Streptococcus pyogenes = assay: as above; type: cell-based; details: Table 2
Excerpt: as §1, §2, §3

[7] = male SD rats, 5 mg/kg iv, cited from earlier work
[8] = monkey, oral; cited from earlier work
[9] = cited from earlier work
[10] = Table 4, agar dilution, read-out: antibacterial activity MIC, Acinetobacter baumannii

| MIC (Acinetobacter baumannii; [10]) [µg/mL] | MIC90 (Acinetobacter baumannii) [µg/mL] | MIC [1] [µg/mL] | MIC (Enterococcus faecalis) [µg/mL] | MIC (Escherichia coli; Table 4) [µg/mL] | MIC90 (Hemophilus influenzae) [µg/mL] | MIC (Klebsiella pneumoniae; Table 4) [µg/mL] | MIC ([2]; Table 4, agar dilution) [µg/mL] | MIC90 [2] [µg/mL] | MIC90 (Staphylococcus aureus [3]) [µg/mL] | MIC (Staphylococcus aureus [3]) [µg/mL] | MIC90 [4] [µg/mL] | MIC (Streptococus agalactiae) [µg/mL] | SMILES | change values (24 h vs blank group mean 0 h) (Staphylococcus aureus [5]; 2 mg/kg/day) [log10 CFU] | log10 CFU for each thigh, mean ± standard deviations (24 h) (Staphylococcus aureus [5]; 2 mg/kg/day) [log10 CFU] | bactericidal effect against Staphylococcus aureus in vivo in mice (Staphylococcus aureus [5]; 6 mg/kg/day) | change values (24 h vs blank group mean 0 h) (Staphylococcus aureus [5]; 6 mg/kg/day) [log10 CFU] | log10 CFU for each thigh, mean ± standard deviations (24 h) (Staphylococcus aureus [5]; 6 mg/kg/day) [log10 CFU] | change values (24 h vs blank group mean 0 h) (Staphylococcus aureus [5]; 18 mg/kg/day) [log10 CFU] | log10 CFU for each thigh, mean ± standard deviations (24 h) (Staphylococcus aureus [5]; 18 mg/kg/day) [log10 CFU] | also measured |
| --- | --- | --- | --- | --- | --- | --- | --- | --- | --- | --- | --- | --- | --- | --- | --- | --- | --- | --- | --- | --- | --- |
| 1 (≈ 1.81 µM) | 2 (≈ 3.62 µM) | 0.125 (≈ 0.226 µM) | 0.06 (≈ 0.109 µM) | 0.25 (≈ 0.452 µM) | 0.5 (≈ 0.905 µM) | 1 (≈ 1.81 µM) | 0.25 (≈ 0.452 µM) | 0.5 (≈ 0.905 µM) | 0.25 (≈ 0.452 µM) | 0.25 (≈ 0.452 µM) | 0.125 (≈ 0.226 µM) | 0.06 (≈ 0.109 µM) | CN(C)c1cc(CN2CC3CC3C2)c(O)c2c1C[C@H]1C[C@H]3[C@H](N(C)C)C(O)=C(C(N)=O)C(=O)[C@@]3(O)C(O)=C1C2=O (stereo partly drawn) [Compound 23, (4S,4aS,5aR,12aS)-9-(3-azabicyclo[3.1.0]hexan-3-ylmethyl)-4,7-bis(dimethylamino)-3,10,12,12a-tetrahydroxy-1,11-dioxo-1,4,4a,5,5a,6,11,12a-octahydrotetracene-2-carboxamide] | 1.28 | 7.67 ± 0.17 | had bactericidal effect | −0.12 | 6.27 ± 0.41 | −2.04 | 4.35 ± 0.45 | AUC(0-inf) (in vivo; iv, 5 mg/kg): 9110 ng·h/mL; Vd (in vivo; iv, 5 mg/kg): 5 L/kg; clearance (in vivo; iv, 5 mg/kg): 9.33 mL/min/kg; half-life (in vivo; iv, 5 mg/kg): 9.94 h; AUC(0-inf) (in vivo; po, 5 mg/kg): 2000 ng·h/mL; Cmax (in vivo; po, 5 mg/kg): 199 ng/mL; Tmax (in vivo; po, 5 mg/kg): 1 h; bioavailability (in vivo; po, 5 mg/kg): 22%; bacteria reducing value of each thigh (Staphylococcus aureus [5]; 6 mg/kg/day): 0.12 |
| 4 (≈ 7.19 µM) | 8 (≈ 14.4 µM) | 0.5 (≈ 0.898 µM) | 0.25 (≈ 0.449 µM) | 4 (≈ 7.19 µM) | 1 (≈ 1.8 µM) | 8 (≈ 14.4 µM) | 2 (≈ 3.59 µM) | 2 (≈ 3.59 µM) | 0.5 (≈ 0.898 µM) | 0.5 (≈ 0.898 µM) | 0.5 (≈ 0.898 µM) | 0.5 (≈ 0.898 µM) | CN(C)c1cc(CNCC(C)(C)C)c(O)c2c1C[C@H]1C[C@H]3[C@H](N(C)C)C(O)=C(C(N)=O)C(=O)[C@@]3(O)C(O)=C1C2=O [PTK-0796, reference compound] | 1.77 | 8.16 ± 0.13 | did not show bactericidal effect | 1.20 | 7.59 ± 0.21 | −1.05 | 5.34 ± 0.79 | MIC (Acinetobacter baumannii; Table 2, agar dilution, read-out: antibacterial activity MIC, Acinetbacter baumannii): 2 µg/mL (≈ 3.59 µM); MIC (Escherichia coli; Table 2): 1 µg/mL (≈ 1.8 µM); MIC (Klebsiella pneumoniae; Table 2): 4 µg/mL (≈ 7.19 µM); MIC [6]: 0.5 µg/mL (≈ 0.898 µM); MIC ([2]; Table 2, agar dilution): 0.5 µg/mL (≈ 0.898 µM); MIC (Streptococcus pyogenes): 0.25 µg/mL (≈ 0.449 µM); bacteria growing values of each thigh (Staphylococcus aureus [5]; 6 mg/kg/day): 1.20 |
|  | 4 (≈ 6.83 µM) |  |  |  | 0.5 (≈ 0.854 µM) |  |  | 1 (≈ 1.71 µM) | 0.5 (≈ 0.854 µM) | 0.25 (≈ 0.427 µM) | 0.25 (≈ 0.427 µM) |  | CN(C)c1cc(NC(=O)CNC(C)(C)C)c(O)c2c1C[C@H]1C[C@H]3[C@H](N(C)C)C(O)=C(C(N)=O)C(=O)[C@@]3(O)C(O)=C1C2=O [tigecycline] | 1.63 | 8.02 ± 0.24 | did not show bactericidal effect | 0.63 | 7.02 ± 0.43 | −2.19 | 4.20 ± 0.25 | AUC(0-inf) (in vivo; iv, 5 mg/kg): 5120 ng·h/mL; Vd (in vivo; iv, 5 mg/kg): 4.47 L/kg; clearance (in vivo; iv, 5 mg/kg): 16.5 mL/min/kg; half-life (in vivo; iv, 5 mg/kg): 3.8 h; AUC(0-inf) (in vivo; po, 10 mg/kg): 296 ng·h/mL; Cmax (in vivo; po, 10 mg/kg): 31.8 ng/mL; Tmax (in vivo; po, 10 mg/kg): 0.5 h; bioavailability (in vivo; po, 10 mg/kg): 1.8%; bacteria growing values of each thigh (Staphylococcus aureus [5]; 6 mg/kg/day): 0.63; AUC ([7]; time 0-24 h): 3550 ng·h/mL; T1/2 [7]: 1 h; absorption in vivo when orally used [8]: can not be absorbed in vivo when orally used; absorption in an oral use [9]: can not be absorbed in an oral use |
